Measured values: patent US12030875B2, “EIF4E inhibitors and uses thereof” (PIC Therapeutics, Inc., priority 2018, dated 2024)

What follows are compounds tested against T1, Human eIF4E (Homo sapiens, UniProt P06730) (assay: Human eIF4E/4G2 binding assay (TR-FRET)). Conditions: eIF4E (aa 28-217) with biotin labeled 4G2 peptide.
T1 construct: Human eIF4E (aa 28-217) with a C-terminal His-tag; made in house
T1 sequence (P06730 28-217): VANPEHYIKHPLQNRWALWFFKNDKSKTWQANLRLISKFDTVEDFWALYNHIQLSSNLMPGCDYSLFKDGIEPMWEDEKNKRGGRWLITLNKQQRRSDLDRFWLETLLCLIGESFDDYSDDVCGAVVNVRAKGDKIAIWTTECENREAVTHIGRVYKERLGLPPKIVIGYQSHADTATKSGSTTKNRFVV
Procedure: Human eIF4E (aa 28-217) with a C-terminal His-tag was expressed in E. coli in inclusion bodies. The protein was solubilized with 8 M urea and purified under denaturing conditions using nickel-charged HisTrap HP columns (GE Healthcare). The purified protein was then refolded by diluting in 20 mM Hepes pH 7.0, 0.5 M NaCl, 1 mM DTT, 1 mM EDTA, 0.5 M arginine plus 6 M urea, and then dialyzing overnight into the same buffer without the urea. The protein was further dialyzed into 20 mM Hepes, pH 6.5, 50 mM NaCl, 1 mM EDTA, 1 mM DTT, and concentrated using Hitrap SP sepharose FF columns (GE Healthcare). The concentrated protein was dialyzed into 20 mM Hepes, pH 7.0, 0.5M NaCl, 5 mM DTT and 10% glycerol, and stored at −80° C. until use.
Test compounds (3.43 mM stock in DMSO) were diluted 2-fold in series in DMSO (10 concentration points). Compound solutions (1.2 μl/well) were added into black 384-well polypropylene microplates (Matrix, Thermal Scientific). Twenty-two microliters per well of Assay Buffer (50 mM NaPi, pH 6.5, 50 mM KCl, 1 mM DTT and 0.5 mg/ml gamma globulin) and eight microliters per well of 82.5 nM purified eIF4E in Assay Buffer were added. The samples were incubated at room temperature (20-23° C.) for 15 min. Biotin labeled 4G2 peptide (Ac-Lys-Gln-Tyr-Asp-Arg-Glu-Phe-Leu-Leu-Asp-Phe-Gln-Phe-Met-Pro-Lys(Aha-Bio)-NH2, 1.75 μM stock in DMSO) was diluted to 0.14 μM in Assay Buffer (without DTT) and 5 μl/well was added. The samples were incubated at room temperature for 15 min. Five microliters per well of 6.4 nM Eu-streptavidin (Eu-SA, Perkin Elmer) and 80 nM Allophycocyanin (APC)-anti His antibody (Columbia Biosciences) in Assay Buffer (without DTT) were then added and the samples were incubated at room temperature for 20 min.
Assay signals were monitored by reading excitation at 340 nm and emission fluorescence at 615 nm and 665 nm on an Envision reader (Perkin Elmer). Normalized TR-FRET (time-resolved fluorescence resonance energy transfer) assay signal (Rn) was calculated by the formula: Rn═[(A−Ba−C×D)/(D−Bd)]×(Dc−Bd) • Where A is the fluorescence intensity of the sample at 665 nm, • D is the fluorescence intensity of the sample at 615 nm, • Ba and Bd are plate backgrounds at 665 nm and 615 nm, respectively, • Dc is the fluorescence intensity of 0.78 nM Eu-SA in the assay buffer at 615 nm • The cross-talk factor (C) is determined by the following formula: C=(Ac−Ba)/(Dc−Bd) • Where Ac is the fluorescence intensity of 0.78 nM Eu-SA in the assay buffer at 665 nm.
IC50 values were calculated using xLFit program (IDBS).
O=C(O)C1CCN(c2nc(-c3ccc(Oc4ccccc4)cc3)c(-c3cccnc3)s2)C1 (centres unmarked) [Compound I-193] was tested, and the IC50 was > 25 µM. Compound CC(C)(CNc1nc(-c2ccc(-c3ccc(F)cc3)cc2)c(-c2cccc3[nH]ccc23)s1)C(=O)O [Compound I-75] has an IC50 of 5 to 25 µM. With O=C(O)C1CC(CNc2nc(-c3ccc(Oc4ccccc4)cc3)c(-c3cccnc3)s2)C1 (centres unmarked) [Compound I-203] the IC50 was > 25 µM. CC(CNc1nc(-c2ccc(-c3cnco3)cc2)c(-c2ccccc2)s1)C(=O)O (centres unmarked) [Compound I-27] was tested, and the IC50 was > 25 µM. Compound CC(C)(CNc1nc(-c2ccc(-c3ccc(F)cc3)cc2)c(Br)s1)C(=O)O [Compound I-71] has an IC50 of 5 to 25 µM. With CC(CNc1nc(-c2ccc(-c3ccc(F)cc3)cc2)c(Br)s1)C(=O)O (centres unmarked) [Compound I-100] the IC50 was 5 to 25 µM. O=C(O)C1CCN(c2nc(-c3ccc(-c4cnco4)cc3)c(-c3cccc4[nH]ccc34)s2)CC1 [Compound I-55] was tested, and the IC50 was > 25 µM. With O=C(O)C1CCN(c2nc(-c3ccc(-c4cnco4)cc3)c(-c3cncnc3)s2)C1 (centres unmarked) [Compound I-41] the IC50 was > 25 µM. For O=C(O)C1CCN(c2nc(-c3ccc(Oc4ccccc4)cc3)c(-c3cccc4[nH]ccc34)s2)C1 (centres unmarked) [Compound I-194], the IC50 was 5 to 25 µM. O=C(O)C1(CNc2nc(-c3ccc(-c4ccc(F)cc4)cc3)c(-c3ccccc3)s2)CC1 [Compound I-122] was tested, and the IC50 was < 5 µM. With O=C(O)C1CN(c2nc(-c3ccc(-c4cnco4)cc3)c(-c3cncnc3)s2)C1 [Compound I-10] the IC50 was > 25 µM. O=C(O)C1CCN(c2nc(-c3ccc(-c4cnco4)cc3)c(-c3cccc4[nH]ccc34)s2)C1 (centres unmarked) [Compound I-43] was tested, and the IC50 was > 25 µM. CC1(C(=O)O)CCCN(c2nc(-c3ccc(-c4cnco4)cc3)c(-c3cccc4[nH]ccc34)s2)C1 (centres unmarked) [Compound I-63] was tested, and the IC50 was > 25 µM. O=C(O)C1CCCN(c2nc(-c3ccc(-c4ccc(F)cc4)cc3)c(-c3cccc4[nH]ccc34)s2)C1 (centres unmarked) [Compound I-109] was tested, and the IC50 was < 5 µM. In the case of O=C(O)C1CN(c2nc(-c3ccc(-c4cnco4)cc3)c(-c3ccccc3)s2)C1 [Compound I-9], the IC50 is reported as > 25 µM. O=C(O)CC1CCCN1c1nc(-c2ccc(Oc3ccccc3)cc2)c(-c2cncnc2)s1 (centres unmarked) [Compound I-187] was tested, and the IC50 was > 25 µM. For O=C(O)C1CN(c2nc(-c3ccc(-c4ccc(F)cc4)cc3)c(-c3ccccc3)s2)C1 [Compound I-77], the IC50 was 5 to 25 µM. With CC1(C(=O)O)CN(c2nc(-c3ccc(-c4ccc(F)cc4)cc3)c(-c3cccnc3)s2)C1 [Compound I-85] the IC50 was > 25 µM. In the case of CC(CC(=O)O)Nc1nc(-c2ccc(-c3ccc(F)cc3)cc2)c(-c2cccc3[nH]ccc23)s1 (centres unmarked) [Compound I-98], the IC50 is reported as 5 to 25 µM. For O=C(O)C1CN(c2nc(-c3ccc(-c4ccc(F)cc4)cc3)c(-c3cccc4[nH]ccc34)s2)CCO1 (centres unmarked) [Compound I-143], the IC50 was < 5 µM. In the case of CCCC(CNc1nc(-c2ccc(Oc3ccccc3)cc2)c(-c2cccnc2)s1)C(=O)O (centres unmarked) [Compound I-170], the IC50 is reported as > 25 µM. In the case of O=C(O)C1CCN(c2nc(-c3ccc(-c4ccc(F)cc4)cc3)c(-c3ccccc3)s2)C1 (centres unmarked) [Compound I-116], the IC50 is reported as < 5 µM. With O=C(O)C1(CNc2nc(-c3ccc(Oc4ccccc4)cc3)c(-c3ccccc3)s2)CC1 [Compound I-196] the IC50 was < 5 µM. O=C(O)CC1CCCN1c1nc(-c2ccc(Oc3ccccc3)cc2)c(-c2ccccc2)s1 (centres unmarked) [Compound I-186] was tested, and the IC50 was < 5 µM. In the case of O=C(O)CC1CCCN1c1nc(-c2ccc(-c3ccc(F)cc3)cc2)cs1 (centres unmarked) [Compound I-110], the IC50 is reported as > 25 µM. CC1(C(=O)O)CN(c2nc(-c3ccc(-c4ccc(F)cc4)cc3)c(-c3ccccc3)s2)C1 [Compound I-83] was tested, and the IC50 was < 5 µM. O=C(O)C1CCN(c2nc(-c3ccc(-c4ccc(F)cc4)cc3)c(-c3cccc4[nH]ccc34)s2)CC1 [Compound I-139] showed an IC50 of 5 to 25 µM. With CC(C)(CNc1nc(-c2ccc(-c3ccc(F)cc3)cc2)cs1)C(=O)O [Compound I-70] the IC50 was > 25 µM. O=C(O)C1CN(c2nc(-c3ccc(-c4cnco4)cc3)c(-c3cccc4[nH]ccc34)s2)CCO1 (centres unmarked) [Compound I-59] was tested, and the IC50 was > 25 µM. CCCC(CNc1nc(-c2ccc(-c3cnco3)cc2)c(-c2ccccc2)s1)C(=O)O (centres unmarked) [Compound I-18] gave an IC50 of 5 to 25 µM. CC(CNc1nc(-c2ccc(Oc3ccccc3)cc2)cs1)C(=O)O (centres unmarked) [Compound I-176] was tested, and the IC50 was > 25 µM. O=C(O)C1CCCN(c2nc(-c3ccc(-c4cnco4)cc3)c(-c3cccnc3)s2)C1 (centres unmarked) [Compound I-33] was tested, and the IC50 was > 25 µM. In the case of O=C(O)C1COCCN1c1nc(-c2ccc(-c3ccc(F)cc3)cc2)c(-c2ccccc2)s1 (centres unmarked) [Compound I-231], the IC50 is reported as < 5 µM. With O=C(O)C1CCN(c2nc(-c3ccc(Oc4ccccc4)cc3)c(-c3cncnc3)s2)CC1 [Compound I-210] the IC50 was > 25 µM. With O=C(O)C1CCCN(c2nc(-c3ccc(-c4cnco4)cc3)c(-c3ccccc3)s2)C1 (centres unmarked) [Compound I-31] the IC50 was > 25 µM. With CC(C)(CNc1nc(-c2ccc(Oc3ccccc3)cc2)c(-c2cncnc2)s1)C(=O)O [Compound I-155] the IC50 was > 25 µM. In the case of O=C(O)C1CCCN(c2nc(-c3ccc(-c4ccc(F)cc4)cc3)c(C(F)(F)F)s2)C1 (centres unmarked) [Compound I-233], the IC50 is reported as < 5 µM. O=C(O)CCc1nc(-c2ccc(-c3ccc(F)cc3)cc2)c(C(F)(F)F)s1 [Compound I-235, 3-(4-(4′-fluorobiphenyl-4-yl)-5-(trifluoromethyl)-thiazol-2-yl)-propanoic acid] showed an IC50 of 5 to 25 µM. With CC(CC(=O)O)Nc1nc(-c2ccc(-c3ccc(F)cc3)cc2)c(Br)s1 (centres unmarked) [Compound I-94] the IC50 was 5 to 25 µM. O=C(O)C1CN(c2nc(-c3ccc(-c4ccc(F)cc4)cc3)c(C(F)(F)F)s2)CCO1 (centres unmarked) [Compound I-239] gave an IC50 of 5 to 25 µM. For O=C(O)C1(CNc2nc(-c3ccc(Oc4ccccc4)cc3)c(-c3cccnc3)s2)CC1 [Compound I-198], the IC50 was > 25 µM. For CC(CNc1nc(-c2ccc(Oc3ccccc3)cc2)c(-c2cccc3[nH]ccc23)s1)C(=O)O (centres unmarked) [Compound I-180], the IC50 was > 25 µM. In the case of O=C(O)CC1CCCN1c1nc(-c2ccc(-c3cnco3)cc2)cs1 (centres unmarked) [Compound I-35], the IC50 is reported as > 25 µM. For CC(C)(CNc1nc(-c2ccc(Oc3ccccc3)cc2)c(-c2ccccc2)s1)C(=O)O [Compound I-154], the IC50 was < 5 µM. In the case of O=C(O)C1CCCN(c2nc(-c3ccc(-c4ccc(F)cc4)cc3)cs2)C1 (centres unmarked) [Compound I-105], the IC50 is reported as 5 to 25 µM. O=C(O)C1CCCN(c2nc(-c3ccc(Oc4ccccc4)cc3)c(-c3cccnc3)s2)C1 (centres unmarked) [Compound I-184] was tested, and the IC50 was > 25 µM. For O=C(O)C1CC(CNc2nc(-c3ccc(-c4ccc(F)cc4)cc3)c(-c3cccnc3)s2)C1 (centres unmarked) [Compound I-130], the IC50 was > 25 µM. For O=C(O)C1CCN(c2nc(-c3ccc(-c4ccc(F)cc4)cc3)cs2)C1 (centres unmarked) [Compound I-115], the IC50 was > 25 µM. For O=C(O)C1CN(c2nc(-c3ccc(Oc4ccccc4)cc3)c(-c3cccnc3)s2)CCO1 (centres unmarked) [Compound I-215], the IC50 was > 25 µM. For CCCC(CNc1nc(-c2ccc(-c3cnco3)cc2)cs1)C(=O)O (centres unmarked) [Compound I-17], the IC50 was > 25 µM. With O=C(O)C1CCN(c2nc(-c3ccc(-c4cnco4)cc3)c(-c3cncnc3)s2)CC1 [Compound I-53] the IC50 was > 25 µM. CCCC(CNc1nc(-c2ccc(Oc3ccccc3)cc2)c(-c2ccccc2)s1)C(=O)O (centres unmarked) [Compound I-168] was tested, and the IC50 was < 5 µM. O=C(O)C[C@H]1CCCN1c1nc(-c2ccc(-c3ccc(F)cc3)cc2)c(-c2ccccc2)s1 [Compound I-225] was tested, and the IC50 was < 5 µM. In the case of O=C(O)C1CCCN(c2nc(-c3ccc(-c4ccc(F)cc4)cc3)c(C3CC3)s2)C1 (centres unmarked) [Compound I-232], the IC50 is reported as < 5 µM. With CC(CC(=O)O)Nc1nc(-c2ccc(-c3ccc(F)cc3)cc2)c(-c2cccnc2)s1 (centres unmarked) [Compound I-97] the IC50 was > 25 µM. In the case of O=C(O)C1(CNc2nc(-c3ccc(-c4ccc(F)cc4)cc3)c(-c3cccnc3)s2)CC1 [Compound I-124], the IC50 is reported as > 25 µM. CC1(C(=O)O)CCCN(c2nc(-c3ccc(-c4ccc(F)cc4)cc3)c(-c3ccccc3)s2)C1 (centres unmarked) [Compound I-144] was tested, and the IC50 was < 5 µM. With O=C(O)C1CN(c2nc(-c3ccccc3)c(-c3ccc(-c4ccc(F)cc4)cc3)s2)CCO1 (centres unmarked) [Compound I-240, 4-(5-(4′-fluorobiphenyl-4-yl)-4-phenylthiazol-2-yl) morpholine-2-carboxylic acid] the IC50 was < 5 µM. For CC(C)[C@@H](CC(=O)O)Nc1nc(-c2ccc(-c3ccc(F)cc3)cc2)c(Br)s1 [Compound I-221], the IC50 was < 5 µM.
